Read-outs that look alike come from different tables or passages of the source. One block for each molecule: values may come before it. Starred links: 1 amine or outer side, 2 acyl side, 3 side chain; linkers in the order of their positions; H or OH if unused. Non-standard residues stand in square brackets, D forms with d. Residues, ends and D or L forms follow the SMILES beside them. Groups on a side chain read outwards from the residue. No end group written: not given here. *: point of attachment. C18 diacid = O=C(O)CCCCCCCCCCCCCCCCC(=O)*; γGlu = O=C(O)[C@H](CCC(=O)[*:2])N[*:1]; Palmitoyl = CCCCCCCCCCCCCCCC(=O)*; AEEA = NCCOCCOCC(=O)O; Aib = CC(C)(N)C(=O)O
Assays:
[1] = Physical stability, Thioflavin T fibrillation assay (Example 14); type: physicochemical; conditions: Buffer B: 100 mM acetate buffer, pH 4.5, 2.7 mg/ml m-cresol; 3 mg/ml; 37° C. shaking
Summary of the method: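 Compounds at 3 mg/ml final in buffer were stressed at 37° C by repeated cycles of 10 s shaking at 960 rpm and 50 s rest. ThT fluorescence was read every 20 minutes in eight replicates, with fluorescence increase and lag time indicating fibrillation tendency.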

rat CRF2R α receptor = assay: cAMP agonism at rat CRF2R α receptor in A7R5 rat aortic smooth muscle cells (Example 8); type: cell-based; conditions: cAMP HTRF, A7R5 rat aortic smooth muscle cell line, 0% HSA
Summary of the method: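 Thawed cryopreserved A7R5 cells in HBSS/20 mM HEPES (0 or 0.1% HSA) with 2 mM IBMX, 2000 cells/well, were exposed to compound for 30 min at room temperature. cAMP was read by HTRF (665/620 nm ratio) after 1 h with lysis reagents. Activity was normalised to 1000 nM urocortin 2 as 100%, and EC50 was taken as the concentration giving 50% of maximal activation.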

[2] = Physical stability, dynamic light scattering assay (Example 15); type: physicochemical; conditions: Buffer B (100 mM acetate, pH 4.5, 2.7 mg/ml m-cresol)
Method: The physical stability of the compounds was also assessed using a dynamic light scattering assay.
In the present study, the physical stability of test compounds was assessed by determining the apparent hydrodynamic radius (Rh), the scattering intensity (I) and mass contribution (M) after synthesis (0 weeks) and after storage for 4 weeks at 40° C.
For each solution of test compound, the hydrodynamic radius Rh and the diffusion constant D (related via the Stokes-Einstein equation) were determined as an average over triplicates. Both parameters were determined at different compound concentrations (e.g., Rh1 and D1: 1 mg/ml and Rh5 and D5: 5 mg/ml, Rh10 and D10: 10 mg/mL) in the same buffer system. The difference of these parameters between low and high peptide concentration is a surrogate for the DLS interaction parameter kD. […] In addition, the hydrodynamic radius Rh and the corresponding Scattering Intensity (%) were determined as an average over duplicates. The target concentration was 300 μM. Therefore, solutions from solid samples were prepared in a buffer system with a concentration of 300 μM compound based on the previously determined % purity.
DLS measurements were performed on a DynaPro Plate Reader I (Wyatt Technology, Santa Barbara, CA, US) with an 837 nm laser light source at a scattering angle of 150°. The data were collected and processed with Dynamics V 7.8.1.3 or 7.8.2.18 software provided by Wyatt Technology.
Hydrodynamic radii were determined with non-negatively constrained least squares (NNLS) methods using DYNALS algorithms with regularization fit. […] Samples were tempered over 1 hour at +25° C. and visually inspected before analysis.
Samples were mixed with the aid of a pipet tip. Measurements were performed in 5 replicates. […] The plate was centrifuged for 2 minutes at 600 rcf. After removing the sealing, the samples were measured at +25° C.

human CRF2α receptor = target: T1, human CRF2α receptor (Homo sapiens, UniProt Q13324); assay: cAMP agonism at human CRF2 α receptor in TeloHEAC cells (Example 7); type: cell-based; conditions: cAMP HTRF, TeloHEAC cells stably expressing human CRF2 α
T1 construct: expressed in transfected cells; host or cells: TeloHEAC
T1 sequence (Q13324 1-411): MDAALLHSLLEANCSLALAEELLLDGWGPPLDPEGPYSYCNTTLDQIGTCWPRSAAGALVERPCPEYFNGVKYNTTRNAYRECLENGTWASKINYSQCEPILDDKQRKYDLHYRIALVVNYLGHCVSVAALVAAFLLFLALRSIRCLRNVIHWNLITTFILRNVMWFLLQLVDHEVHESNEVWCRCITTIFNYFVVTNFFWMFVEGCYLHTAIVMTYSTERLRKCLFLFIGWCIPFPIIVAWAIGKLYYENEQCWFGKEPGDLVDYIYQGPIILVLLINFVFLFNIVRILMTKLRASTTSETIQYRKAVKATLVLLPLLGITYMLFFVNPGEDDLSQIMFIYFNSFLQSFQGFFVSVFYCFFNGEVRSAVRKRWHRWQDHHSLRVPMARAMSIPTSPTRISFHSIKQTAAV
Summary of the method: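 Steps: thaw and wash cells; suspend in 1×HBSS, 20 mM HEPES, 0 or 0.1% HSA, 2 mM IBMX; add compound, 30 min RT; lyse with HTRF reagents, 1 h; read 665/620 nm. EC50 calculated, E% versus 1000 nM UCN2.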

[3] = Solubility in buffer systems by UPLC-UV (Example 13); type: physicochemical; conditions: pH 4.5, Solubility in Buffer B [mg/ml]
Summary of the method: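 The supernatant was diluted 1:10 and quantified by UPLC-UV peak area against a reference standard curve, correcting for sequence-based extinction coefficients.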

[4] = target: human corticotropin-releasing factor 2α (CRF2α receptor) (human), Q13324; assay: cell-based or functional assay

Increase in FI (fluorescence intensity) [1]: No
Lag time [1]: >45 h
EC50 (rat CRF2R α receptor): 0.2 nM
Apparent Rh [nm] 0 weeks ([2]; 0 weeks): 3.63 ± 0.14 nm
Scattering Intensity (I) [%] 0 weeks ([2]; 0 weeks): 100 ± 0%
Apparent Rh [nm] 4 weeks ([2]; 4 weeks at 40° C.): 3.59 ± 0.04 nm
Scattering Intensity (I) [%] 4 weeks ([2]; 4 weeks at 40° C.): 100 ± 0%
EC50 (human CRF2α receptor; 0% HSA, read-out: EC50 [nM], 0% HSA): 0.05 nM
EC50 (human CRF2α receptor; 0.1% HSA, read-out: EC50 [nM], 0.1% HSA): 1.42 nM
solubility at 1 h [3]: > 8700 µg/mL
Molecule: CC[C@H](C)[C@H](N)C(=O)N[C@H](C(=O)N[C@@H](CC(C)C)C(=O)N[C@@H](CO)C(=O)N[C@@H](CC(C)C)C(=O)N[C@@H](CC(=O)O)C(=O)N[C@@H](C(=O)N1CCC[C@H]1C(=O)N[C@H](C(=O)N[C@@H](CCCCN)C(=O)N[C@@H](CC(C)C)C(=O)N[C@@H](CCCCNC(=O)COCCOCCNC(=O)COCCOCCNC(=O)CC[C@H](NC(=O)CCCCCCCCCCCCCCCCC(=O)O)C(=O)O)C(=O)N[C@@H](CCC(N)=O)C(=O)N[C@H](C(=O)N[C@@H](CC(C)C)C(=O)N[C@@H](CC(C)C)C(=O)N[C@@H](CCC(=O)O)C(=O)N[C@@H](CCC(N)=O)C(=O)N[C@@H](C)C(=O)N[C@@H](CCCNC(=N)N)C(=O)N[C@@H](CCC(N)=O)C(=O)N[C@@H](CCCCN)C(=O)NC(C)(C)C(=O)N[C@@H](CCC(N)=O)C(=O)N[C@@H](CCCNC(=N)N)C(=O)N[C@@H](CCC(=O)O)C(=O)N[C@@H](CCC(N)=O)C(=O)N[C@@H](C)C(=O)N[C@@H](CCC(=O)O)C(=O)N[C@@H](CCCCN)C(=O)N[C@@H](CC(N)=O)C(=O)N[C@@H](CCCCN)C(=O)N[C@@H](CCCNC(=N)N)C(=O)N[C@H](C(=O)N[C@@H](CC(C)C)C(=O)N[C@@H](CCC(=O)O)C(=O)N[C@@H](CCCNC(=N)N)C(=O)N[C@H](C(N)=O)C(C)C)[C@@H](C)CC)[C@@H](C)CC)[C@@H](C)CC)C(C)C)C(C)C [compound 142] (H-IVLSLD[dV]PIKLK([AEEA-AEEA-γGlu-C18 diacid])QILLEQARQK[Aib]QREQAEKNKRILERV-NH2; N-terminus assumed)

EC50 [nM], 0% HSA (cAMP, HTRF) [4]: 0.32 nM
B1: peptide of SEQ ID NO: 205 (peptide)
peptide: IVLSLD[dV]PIKLK([AEEA-AEEA-γGlu-Palmitoyl])QILLKQERQK[Aib]QREQAEKNKQILAQV-NH2
modifications: N-terminus assumed
SMILES: CCCCCCCCCCCCCCCC(=O)N[C@@H](CCC(=O)NCCOCCOCC(=O)NCCOCCOCC(=O)NCCCC[C@H](NC(=O)[C@H](CC(C)C)NC(=O)[C@H](CCCCN)NC(=O)[C@@H](NC(=O)[C@@H]1CCCN1C(=O)[C@H](NC(=O)[C@H](CC(=O)O)NC(=O)[C@H](CC(C)C)NC(=O)[C@H](CO)NC(=O)[C@H](CC(C)C)NC(=O)[C@@H](NC(=O)[C@@H](N)[C@@H](C)CC)C(C)C)C(C)C)[C@@H](C)CC)C(=O)N[C@@H](CCC(N)=O)C(=O)N[C@H](C(=O)N[C@@H](CC(C)C)C(=O)N[C@@H](CC(C)C)C(=O)N[C@@H](CCCCN)C(=O)N[C@@H](CCC(N)=O)C(=O)N[C@@H](CCC(=O)O)C(=O)N[C@@H](CCCNC(=N)N)C(=O)N[C@@H](CCC(N)=O)C(=O)N[C@@H](CCCCN)C(=O)NC(C)(C)C(=O)N[C@@H](CCC(N)=O)C(=O)N[C@@H](CCCNC(=N)N)C(=O)N[C@@H](CCC(=O)O)C(=O)N[C@@H](CCC(N)=O)C(=O)N[C@@H](C)C(=O)N[C@@H](CCC(=O)O)C(=O)N[C@@H](CCCCN)C(=O)N[C@@H](CC(N)=O)C(=O)N[C@@H](CCCCN)C(=O)N[C@@H](CCC(N)=O)C(=O)N[C@H](C(=O)N[C@@H](CC(C)C)C(=O)N[C@@H](C)C(=O)N[C@@H](CCC(N)=O)C(=O)N[C@H](C(N)=O)C(C)C)[C@@H](C)CC)[C@@H](C)CC)C(=O)O

From patent US12679878B2, “CRF2 receptor agonists and their use in therapy” (SANOFI, priority 2020, dated 2026)
